Data taken from patent US12060351B2, “Thiadiazole IRAK4 inhibitors” (Gilead Sciences, Inc., priority 2018, dated 2024).
Read-outs that look alike come from different tables or passages of the source.

Experiments:
[1] = molecular target: T1, IRAK4 enzyme (Homo sapiens, UniProt Q9NWZ3); assay: IRAK4 Biochemical Assay (TR-FRET, STK1 KinEASE); settings: 500 μM ATP, Table 2 second part (compounds 33-343), read-out: IC50 IRAK4-HTBS
T1 construct: purchased Carna Biosciences, Chuo-ku, Kobe, Japan
T1 sequence (Q9NWZ3 1-460): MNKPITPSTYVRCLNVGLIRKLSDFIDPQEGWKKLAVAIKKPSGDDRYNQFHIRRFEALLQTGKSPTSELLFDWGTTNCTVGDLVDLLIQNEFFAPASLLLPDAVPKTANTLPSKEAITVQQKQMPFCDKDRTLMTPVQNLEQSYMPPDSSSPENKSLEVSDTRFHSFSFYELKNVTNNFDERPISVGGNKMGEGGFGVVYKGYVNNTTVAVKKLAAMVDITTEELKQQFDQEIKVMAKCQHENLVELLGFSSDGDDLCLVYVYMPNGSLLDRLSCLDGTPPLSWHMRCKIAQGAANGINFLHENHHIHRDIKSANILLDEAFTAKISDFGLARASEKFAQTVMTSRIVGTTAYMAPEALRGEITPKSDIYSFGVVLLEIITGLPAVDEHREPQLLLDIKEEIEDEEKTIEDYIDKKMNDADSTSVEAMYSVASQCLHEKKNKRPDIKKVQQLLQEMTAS
Method in brief: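 Human IRAK4 (0.75 nM) preincubated 15 min with compound and 2 μM STK1 peptide, then reacted 120 min at room temperature with 500 μM ATP in HEPES pH 7.0 buffer with MgCl2 and DTT. EDTA stop with Cryptate anti-phosphopeptide antibody and tracer, 60 min; TR-FRET read as 665/615 nm ratio.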

[2] = tested on: TNFα; assay: IRAK4 Monocyte TNFα Cell Based Assay (LPS-stimulated, TR-FRET TNFα detection); design: species or system human; settings: Homo sapiens, Monocyte, read-out: EC50 MONO TNF HTRF
Method in brief: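 Monocytes (5,000 cells/well) treated with compound (0.1% DMSO) for 1 hour at 37° C, then stimulated with 50 pg/ml LPS for 4 hours. TNFα in medium quantified by TR-FRET two-antibody detection after overnight room-temperature incubation. Percent of control calculated against unstimulated (0%) and LPS-stimulated (100%) cells.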

[3] = human monocytes, LPS-stimulated, Table 2 second part (compounds 33-343)

Compound | IC50 [1] [nM] | EC50 [2] [nM] | EC50 [2, 3] [nM]
CNc1cc(-c2ccc3cc(C#N)cnn23)ncc1-c1nnc(N2C[C@H]3C[C@@H](C2)[C@@H]3NC(C)=O)s1 [Example 176, N-((1R,5S,6s)-3-(5-(6-(3-cyanopyrrolo[1,2-b]pyridazin-7-yl)-4-(methylamino)pyridin-3-yl)-1,3,4-thiadiazol-2-yl)-3-azabicyclo[3.1.1]heptan-6-yl)acetamide] | 0.76 | 23.5 | 
N#Cc1cnn2c(-c3cc(NC4CCOCC4)c(-c4nnc([C@H]5CC[C@H](NC(=O)C6CC6)CC5)s4)cn3)ccc2c1 [Example 156, N-((1r,4r)-4-(5-(6-(3-cyanopyrrolo[1,2-b]pyridazin-7-yl)-4-((tetrahydro-2H-pyran-4-yl)amino)pyridin-3-yl)-1,3,4-thiadiazol-2-yl)cyclohexyl)cyclopropanecarboxamide] | 1.42 |  | 10.9
CC(C)Nc1cc(-c2ccc3cc(C#N)cnn23)ncc1-c1nnc(N2C[C@H]3CC[C@@H](C2)[C@@H]3NC(=O)C2CC2)s1 [Example 150, N-((1R,5S,8s)-3-(5-(6-(3-cyanopyrrolo[1,2-b]pyridazin-7-yl)-4-(isopropylamino)pyridin-3-yl)-1,3,4-thiadiazol-2-yl)-3-azabicyclo[3.2.1]octan-8-yl)cyclopropanecarboxamide] | 0.46 |  | 5.2
CC(C)Nc1cc(-c2ccc3cc(C#N)cnn23)ncc1-c1nnc([C@H]2CC[C@H](NC(=O)C3CC3)CC2)s1 [Example 125, N-((1r,4r)-4-(5-(6-(3-cyanopyrrolo[1,2-b]pyridazin-7-yl)-4-(isopropylamino)pyridin-3-yl)-1,3,4-thiadiazol-2-yl)cyclohexyl)cyclopropanecarboxamide] | 0.25 |  | 5.4
CC(C)Nc1cc(-c2ccc3cc(C#N)cnn23)ncc1-c1nnc(C(=O)N[C@H]2C[C@](C)(O)C2)s1 [Example 219, 5-(6-(3-cyanopyrrolo[1,2-b]pyridazin-7-yl)-4-(isopropylamino)pyridin-3-yl)-N-((1r,3r)-3-hydroxy-3-methylcyclobutyl)-1,3,4-thiadiazole-2-carboxamide] | 0.68 |  | 2070
CC(=O)N[C@H]1[C@@H]2COC[C@H]1CN(c1nnc(-c3cnc(-c4ccc5cc(C#N)cnn45)cc3NC(C)C)s1)C2 [Example 182, N-((1R,5S,9r)-7-(5-(6-(3-cyanopyrrolo[1,2-b]pyridazin-7-yl)-4-(isopropylamino)pyridin-3-yl)-1,3,4-thiadiazol-2-yl)-3-oxa-7-azabicyclo[3.3.1]nonan-9-yl)acetamide] | 0.53 |  | 37.8
CC(=O)N[C@@H]1[C@@H]2CC[C@H]1CN(c1nnc(-c3cnc(-c4ccc5cc(C#N)cnn45)cc3NC3COC3)s1)C2 [Example 184, N-((1R,5S,8s)-3-(5-(6-(3-cyanopyrrolo[1,2-b]pyridazin-7-yl)-4-(oxetan-3-ylamino)pyridin-3-yl)-1,3,4-thiadiazol-2-yl)-3-azabicyclo[3.2.1]octan-8-yl)acetamide] | 0.54 |  | 2.4
CC(C)Nc1cc(-c2ccc3cc(C#N)cnn23)ncc1-c1nnc(N2C[C@H]3CC[C@@H](C2)[C@@H]3NC(=O)[C@H]2C[C@](C)(O)C2)s1 [Example 92, (1r,3R)-N-((1R,5S,8s)-3-(5-(6-(3-cyanopyrrolo[1,2-b]pyridazin-7-yl)-4-(isopropylamino)pyridin-3-yl)-1,3,4-thiadiazol-2-yl)-3-azabicyclo[3.2.1]octan-8-yl)-3-hydroxy-3-methylcyclobutane-1-carboxamide] | 1.72 |  | 5
CC(C)Nc1cc(-c2ccc3cc(C#N)cnn23)ncc1-c1nnc(N2C[C@H]3CC[C@@H](C2)[C@@H]3NC(=O)C2(C)CCOCC2)s1 [Example 95, N-((1R,5S,8s)-3-(5-(6-(3-cyanopyrrolo[1,2-b]pyridazin-7-yl)-4-(isopropylamino)pyridin-3-yl)-1,3,4-thiadiazol-2-yl)-3-azabicyclo[3.2.1]octan-8-yl)-4-methyltetrahydro-2H-pyran-4-carboxamide] | 0.7 |  | 4.1
CC(C)Nc1cc(-c2ccc3cc(C#N)cnn23)ncc1-c1nnc(N2C[C@H]3CC[C@@H](C2)[C@@H]3NC(=O)C2(C)COC2)s1 [Example 94, N-((1R,5S,8s)-3-(5-(6-(3-cyanopyrrolo[1,2-b]pyridazin-7-yl)-4-(isopropylamino)pyridin-3-yl)-1,3,4-thiadiazol-2-yl)-3-azabicyclo[3.2.1]octan-8-yl)-3-methyloxetane-3-carboxamide] | 0.9 |  | 4
CC(C)Nc1cc(-c2ccc3cc(C#N)cnn23)ncc1-c1nnc(C(=O)N[C@H]2CC[C@@H](O)CC2)s1 [Example 224, 5-(6-(3-cyanopyrrolo[1,2-b]pyridazin-7-yl)-4-(isopropylamino)pyridin-3-yl)-N-((1s,4s)-4-hydroxycyclohexyl)-1,3,4-thiadiazole-2-carboxamide] | 1.12 |  | 4770
CC(C)Nc1cc(-c2ccc3cc(C#N)cnn23)ncc1-c1nnc(N2C[C@H]3CC[C@@H](C2)[C@@H]3NC(=O)[C@H]2C[C@@](C)(O)C2)s1 [Example 93, (1s,3S)-N-((1R,5S,8s)-3-(5-(6-(3-cyanopyrrolo[1,2-b]pyridazin-7-yl)-4-(isopropylamino)pyridin-3-yl)-1,3,4-thiadiazol-2-yl)-3-azabicyclo[3.2.1]octan-8-yl)-3-hydroxy-3-methylcyclobutane-1-carboxamide] | 1.78 |  | 5.9
CC(=O)N[C@H]1C[C@H](c2nnc(-c3cnc(-c4ccc5cc(C#N)cnn45)cc3NC3CCOCC3)s2)C1 [Example 201, N-((1r,3r)-3-(5-(6-(3-cyanopyrrolo[1,2-b]pyridazin-7-yl)-4-((tetrahydro-2H-pyran-4-yl)amino)pyridin-3-yl)-1,3,4-thiadiazol-2-yl)cyclobutyl)acetamide] | 1.17 |  | 34.9
CC(=O)N[C@]1(C)[C@@H]2CC[C@H]1CN(c1nnc(-c3cnc(-c4ccc5cc(C#N)cnn45)cc3NC(C)C)s1)C2 [Example 155, N-((1R,5S,8s)-3-(5-(6-(3-cyanopyrrolo[1,2-b]pyridazin-7-yl)-4-(isopropylamino)pyridin-3-yl)-1,3,4-thiadiazol-2-yl)-8-methyl-3-azabicyclo[3.2.1]octan-8-yl)acetamide] | 1.52 |  | 7.4
CC(C)Nc1cc(-c2ccc3cc(C#N)cnn23)ncc1-c1nnc(C(=O)N2CCC[C@H]2CO)s1 [Example 217, (S)-7-(5-(5-(2-(hydroxymethyl)pyrrolidine-1-carbonyl)-1,3,4-thiadiazol-2-yl)-4-(isopropylamino)pyridin-2-yl)pyrrolo[1,2-b]pyridazine-3-carbonitrile] | 0.81 |  | 11.1
CC(=O)N[C@H]1[C@@H]2CN(c3nnc(-c4cnc(-c5ccc6cc(C#N)cnn56)cc4NC(C)C)s3)C[C@@H]21 [Compound 240, N-((1R,5S,6s)-3-(5-(6-(3-cyanopyrrolo[1,2-b]pyridazin-7-yl)-4-(isopropylamino)pyridin-3-yl)-1,3,4-thiadiazol-2-yl)-3-azabicyclo[3.1.0]hexan-6-yl)acetamide] | 0.15 |  | 8.9
CC(=O)N[C@@H]1[C@@H]2CCC[C@H]1CN(c1nnc(-c3cnc(-c4ccc5cc(C#N)cnn45)cc3NC(C)C)s1)C2 [Example 166, N-((1R,5S,9s)-3-(5-(6-(3-cyanopyrrolo[1,2-b]pyridazin-7-yl)-4-(isopropylamino)pyridin-3-yl)-1,3,4-thiadiazol-2-yl)-3-azabicyclo[3.3.1]nonan-9-yl)acetamide] | 0.66 |  | 2.3
CC(C)Nc1cc(-c2ccc3cc(C#N)cnn23)ncc1-c1nnc(N2C[C@H]3CC[C@@H](C2)[C@@H]3NC(=O)N2CCN(S(C)(=O)=O)CC2)s1 [Example 106, N-((1R,5S,8s)-3-(5-(6-(3-cyanopyrrolo[1,2-b]pyridazin-7-yl)-4-(isopropylamino)pyridin-3-yl)-1,3,4-thiadiazol-2-yl)-3-azabicyclo[3.2.1]octan-8-yl)-4-(methylsulfonyl)piperazine-1-carboxamide] | 1.09 |  | 2.6
CC1(Nc2cc(-c3ccc4cc(C#N)cnn34)ncc2-c2nnc([C@H]3CC[C@H](NC(=O)C4CC4)CC3)s2)COC1 [Example 158, N-((1r,4r)-4-(5-(6-(3-cyanopyrrolo[1,2-b]pyridazin-7-yl)-4-((3-methyloxetan-3-yl)amino)pyridin-3-yl)-1,3,4-thiadiazol-2-yl)cyclohexyl)cyclopropanecarboxamide] | 1.15 |  | 19.8
